Experiments:
[1] = target: T1, membrane localized RI in Jurkat T cells (Homo sapiens, UniProt P10644); experiment: Immunofluorescence of RI localisation in Jurkat T cells; format: cell-based
T1 construct: endogenous in cells; host or cells: Jurkat T cells

[2] = test system: human peripheral blood T cells; experiment: Flow cytometry of cell death/apoptosis in activated T cells; format: cell-based
Experimental: Flow cytometry. Negatively selected CD3^+ T cells cultured in flat-bottom, 96-well plates (Costar; 0.2×10^6 cells/well) were activated with OKT-3 (4 ng/μl) for […] at 37° C., crosslinked with F(ab′)2 fragments (39 μg/ml) and thereafter incubated with arginine-coupled peptides at 0-50 μM. For analyzing the DNA content, the cells were incubated further for 36-40 hours and thereafter washed in PBS, fixed in […], permeabilized in FACS Permeabilizing Solution (BD BioSciences, San Jose, Calif.) for 10 min and washed in PBS containing 1% BSA and 100 μg/ml RNase prior to being stained with propidium iodide (PI, Cat. No. 51-66211E BD Biosciences Pharmingen, San Diego, Calif., USA) (25 μg/ml) for 15 min 37° C. The cells were washed twice in PBS and fixed in 1% paraformaldehyde before flow cytometry (FACSCalibur, BD Biosciences, San Jose, Calif.) and subsequent analysis using FlowJo software (Tree Star, San Carlos, Calif.). For analyzing apoptosis and necrosis, the cells were incubated further for 18 hours and thereafter washed in PBS, fixed in 1% paraformaldehyde and washed with annexin binding buffer (Cat. No. 51-66121E, BD Biosciences) prior to being stained with Annexin V (3 μl to 50 μl volume, Cat. No. 556419, BD Biosciences Pharmingen) and PI (3 μg/ml) for 20 min on ice. The cells were washed twice in PBS and fixed in 1% paraformaldehyde before being analyzed on a flow cytometer (FACSCalibur, BD Biosciences, San Jose, Calif.) and analyzed using FlowJo software (Tree Star, San Carlos, Calif.).
To test whether MEME3-Arg11 induces cell death or apoptosis in human peripheral blood T cells, activated T cells treated with increasing doses of MEME3-Arg11 were analysed by forward scatter/sideward scatter (FSC/SSC) in a fluorescence-activated cell sorter (FACS). […] Apoptosis was also assessed by Annexin V^FITC labeling under the same experimental conditions. […] The effect of the peptides on cellular DNA content was also measured by flow cytometry after permeabilization of the fixed cells and PI-staining.
Cell death was also analysed by monitoring PS externalization by Annexin V binding and destruction of the cellular membrane by PI staining using FACS.

[3] = test system: Csk-PS364; experiment: Csk phosphoserine 364 level in forskolin-stimulated T cells; format: cell-based, human; settings: 25 μM, 12 hours
Experimental: (§1) Antibodies. RI or RII were immunoprecipitated with polyclonal antibodies against human RI or human RII at a 3 μg/ml dilution (Santa Cruz Biotechnology). MEME3 or scrambled peptide was immunoprecipitated with 1.5 μl of anti-GFP antiserum (Invitrogen). Monoclonal (Transduction laboratories) or polyclonal antibodies (Santa Cruz Biotechnology) against human RIα and RIIα were used at a 1 μg ml^−1 or 0.5 μg ml^−1 ilution for Western blotting. Polyclonal antibodies against human Cα (Santa Cruz Biotechnology) and LAT (Upstate Biotechnology) were used at a 0.4 μg ml^−1 and a 1 μg ml^−1 dilution for Western blotting, respectively. Polyclonal antibodies against LckPY505 (Cell Signaling) were used at a 1:1000 dilution and polyclonal antibody raised towards PS364 in Csk were used as previously described (Yaqub et al., Biochem. J., 372: p 271-8, 2003). Polyclonal antibodies against StAR (Affinity BioReagents) were used at 1 μg ml^−1. […]
Peripheral blood T cells were treated with 25 μM M3-Arg11 or mock treated for 12 hours and stimulated with forskolin to activate the PKA-Csk inhibitory pathway. Subsequently, cell lysates were subjected to […], blotting onto a PVDF membranes and the Csk phosphoserine 364 levels were assessed by immunoblotting using phosphospecific antibodies to Csk-PS364 (FIG. 19, upper panel).

[4] = test system: Lck-PY505; experiment: Lck-PY505 level in lipid rafts of forskolin-stimulated T cells; format: cell-based, human; settings: 25 μM, 12 hours, n=3
Experimental: as §1
Peripheral blood T cells were incubated in the absence (FIG. 20, A) or presence of 25 μM MEME3-Arg11 (B) or 25 μM SM3-Arg11 (C) for 12 hours and stimulated with forskolin to activate the PKA-Csk inhibitory pathway. […] Next, fractions were analysed by 10% PAGE, blotting onto a PVDF membrane and immunoblotting using phosphospecific antibodies to Lck-PY505 (FIG. 20, panels A-C).

[5] = activated T cells, increasing doses

## LEQYANQLADQIIKEATERRRRRRRRRrr [MEME3-Arg11]
[1]; 1 μM
  displacement of membrane localized RI: some displacement of RI from cell membrane
[1]; 5 μM
  displacement of membrane localized RI: All membrane localized RI was displaced and was delocalised
[2]; [5]
  annexin V binding: no increase in annexin V binding, but rather a small decrease
  morphological changes (FSC/SSC): no morphological changes characteristic of apoptosis
[2]; overnight
  late apoptotic cells (AV+/PI+): No late apoptotic cells (AV+/PI+) were detected
[2]; permeabilized fixed cells
  DNA content (aneuploidity), PI-staining: No change in DNA content
[3]
  reduction of Csk-PS364 level: 70%
[4]
  reduction of LckPY505 levels compared to SM3-Arg11 treated cells: 60%
